Source: paper PMC11045757, “Group 3 medulloblastoma transcriptional networks collapse under domain specific EP300/CBP inhibition” (Nature Communications, 2024)
Where “and” joins values, the source holds several entries; their conditions need not be identical. Equal entries are not always repeated. Where two headings read alike, the source gives them in different places.

How the values were obtained:
[1] = system: HDMB03 (HDMBO3) group 3 medulloblastoma cells; assay: CellTiter-Glo dose-response growth assay; type: cell-based; details: HDMBO3 G3MB cell growth; read-out: IC50 (nM) HDMBO3
Description: CellTiter-Glo assay was performed as per the manufacturer’s instructions, at the noted timepoint after compound treatment or plating. For Kelly, TE617T, RhJT, NCIH2122, NCIH650 and 143B, 500 cells were plated in normal growth media per well in a 384-well plate (Corning). HDMB03 and MB002 cells were plated in growth media at 500 cells/well in a 384-well plate. […] Cells were incubated for the noted timepoints prior to performing CellTiter-Glo assay as per the manufacturer’s instructions, and reading plates on an Envision 2104 microplate reader.

BRD4-BD1 (BRD4-1) = biological target: T1, BRD4-BD1 (BRD4-1) (Homo sapiens, UniProt O60885); assay: Differential scanning fluorimetry (DSF) thermal shift; type: binding; details: DSF; for ∆Tm (°C) BRD4-1: 5 μM protein, 100 μM compound, three independent experiments, average ± SD
T1 construct: BRD4-BD1 (residues 44-168); 6xHis (cleaved yes); host or cells: E. coli BL21 (DE3) RIL
Description: (§1) At OD600 of 0.6, the culture was cooled down to 18 °C and induced with 0.1 mM IPTG. After 18 h growth, the culture was harvested by centrifugation at 6000 × g for 25 min and stored at -80 °C. Harvested cell pellets were re-suspended in 50 mM Na/K phosphate buffer (pH 7.4) containing 100 mM NaCl, 40 mM imidazole, 0.01% w/v lysozyme and 0.01% v/v Triton X-100 at 4 °C for 1 h, subjected to sonication and the lysate was clarified by centrifugation (30,000 × g for 45 min at 4 °C). Proteins were purified by FPLC at 4 °C using columns and chromatography materials from GE Healthcare. […] Proteins were purified to homogeneity by size exclusion chromatography using Superdex 75 equilibrated with elution buffer (50 mM HEPES pH 7.5, 100 mM NaCl, 2 mM DTT). All BRDs eluted as monomeric protein and were of crystallization grade quality (>95% purity as judged by SDS-PAGE). Pool fractions were combined, concentrated to 10–12 mg/ml, and aliquots were flash-frozen in liquid N2 and stored at −80 °C.
(§2) DSF experiments were performed with an Applied Biosystem StepOnePlus real-time PCR system (Thermo Fisher Scientific) using 96-well format plates, assayed in quadruplicate. For thermal shift determination, 5 μM protein was mixed with 100 μM compound in 50 mM HEPES, pH 7.5, 150 mM NaCl, 2 mM DTT, 2% DMSO, 5X SYPRO Orange (Thermo Fisher Scientific) in 20 μL reaction volumes. Reaction mixtures were heated from 25 to 95 °C at 1 °C/min with fluorescence readings every 0.5 °C at 610 nm. The observed thermal shift (ΔTm) was recorded as the difference between the Tm of sample and DMSO reference wells.

EP300 bromodomain = biological target: T2, EP300 bromodomain (Homo sapiens, UniProt Q09472); assay: as above; type: binding; details: DSF
T2 construct: 6xHis (cleaved yes); host or cells: E. coli BL21 (DE3) RIL
T2 sequence (Q09472 1048-1161): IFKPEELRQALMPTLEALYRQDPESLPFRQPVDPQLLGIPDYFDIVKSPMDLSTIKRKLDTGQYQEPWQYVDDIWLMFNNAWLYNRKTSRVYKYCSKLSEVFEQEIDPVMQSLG
Description: as §1, §2

CBP bromodomain [2] = biological target: T3, CBP bromodomain (Homo sapiens, UniProt Q92793); assay: as above; type: binding; details: for ∆Tm (°C) CBP / ΔTm (°C) CBP: DSF; for ∆Tm (°C) CBP: 5 μM protein, 100 μM compound, three independent experiments, average ± SD
T3 construct: CBP (residues 1081-1197); 6xHis (cleaved yes); host or cells: E. coli BL21 (DE3) RIL
T3 sequence (Q92793 1081-1197): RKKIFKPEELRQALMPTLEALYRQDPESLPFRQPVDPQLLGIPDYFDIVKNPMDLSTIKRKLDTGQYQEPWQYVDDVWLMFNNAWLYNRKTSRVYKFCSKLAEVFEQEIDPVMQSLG
Description: as §1, with “After” for “At OD600 of 0.6, the culture was cooled down to 18 °C and induced with 0.1 mM IPTG. After”, “All BRDs eluted as monomeric protein and were of crystallization grade quality (>95% purity as judged by SDS-PAGE).” left out
(§3) DSF experiments were performed with an Applied Biosystem StepOnePlus real-time PCR system (Thermo Fisher Scientific) using 96-well format plates, assayed in quadruplicate. For thermal shift determination, 5 μM protein was mixed with 100 μM compound in 50 mM HEPES, pH 7.5, 150 mM NaCl, 2 mM DTT, 2% DMSO, 5X SYPRO Orange (Thermo Fisher Scientific) in 20 μL reaction volumes.

CBP bromodomain [3] = assay: as above; type: binding; details: ΔTm (CBP)/ΔTm(BRD4)
Description: as §1, with “After” for “At OD600 of 0.6, the culture was cooled down to 18 °C and induced with 0.1 mM IPTG. After”, “All BRDs eluted as monomeric protein and were of crystallization grade quality (>95% purity as judged by SDS-PAGE).” left out
as §3

[4] = biological target: GFP-tagged CBP bromodomain (Homo sapiens, UniProt Q92793); assay: Microscale thermophoresis (MST); type: binding; details: for Response (Dose Response Curve): MST raw response
GFP-tagged CBP bromodomain, sequence (Q92793 1085-1192 limits assumed): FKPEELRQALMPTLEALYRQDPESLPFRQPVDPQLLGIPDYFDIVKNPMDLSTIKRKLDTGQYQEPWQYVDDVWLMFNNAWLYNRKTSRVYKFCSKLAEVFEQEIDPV
Description: MST experiments were performed in a Monolith NT.115 Pico instrument (NanoTemper Technologies) following published procedures. […] MST traces were recorded using standard parameters: 5 s MST power off, 30 s MST power on and 5 s MST power off. Measurements were taken at -1-0 s (cold region) and 10 s (hot region) and data were analyzed using the NTAnalysis software.

IC50 [1]: 156 ± 63 nM
∆Tm (°C) BRD4-1 (BRD4-BD1 (BRD4-1)): 5.6 ± 0.18 °C
∆Tm (°C) BRD4-1 (BRD4-BD1 (BRD4-1); listed as iCBP-1): 5.6 °C
ΔTm (°C) BRD4-BD1 (BRD4-BD1 (BRD4-1); Figure 3A, BRD4-BD1): 5.6 °C
∆Tm (°C) EP300 (EP300 bromodomain; 5 μM protein, 100 μM compound, three independent experiments, average ± SD): 15.2 ± 0.43 °C
ΔTm (°C) EP300 (EP300 bromodomain; Figure 3B, EP300): 15.2 °C
∆Tm (°C) CBP (CBP bromodomain [2]): 15.7 ± 0.13 °C
∆Tm (°C) CBP (CBP bromodomain [2]; listed as iCBP-1): 15.7 °C
ΔTm (°C) CBP (CBP bromodomain [2]; Figure 3A, CBP bromodomain): 15.7 °C
ΔTm (°C) CBP (CBP bromodomain [2]; Figure 3B, CBP): 15.7 °C
DSF ΔTm (°C) (CBP bromodomain [2]; Figure 3C, DSF (values equal CBP column)): 15.7 °C
Response (Dose Response Curve) ([4]; Dose 7.6294e-11, single replicate run, listed as iCBP-1): 853.223 and 857.66 and 855.66
Response (Dose Response Curve) ([4]; Dose 1.52588e-10, single replicate run, listed as iCBP-1): 855.736 and 856.23 and 855.826
Response (Dose Response Curve) ([4]; Dose 3.05176e-10, single replicate run, listed as iCBP-1): 853.445 and 855.178 and 855.494
Response (Dose Response Curve) ([4]; Dose 6.10352e-10, single replicate run, listed as iCBP-1): 856.427 and 856.757 and 853.917
Response (Dose Response Curve) ([4]; Dose 1.2207e-9, single replicate run, listed as iCBP-1): 856.018 and 857.281 and 855.418
Response (Dose Response Curve) ([4]; Dose 2.44141e-9, single replicate run, listed as iCBP-1): 854.643 and 857.895 and 854.619
Response (Dose Response Curve) ([4]; Dose 4.88281e-9, single replicate run, listed as iCBP-1): 855.403 and 855.962 and 856.044
Response (Dose Response Curve) ([4]; Dose 9.76563e-9, single replicate run, listed as iCBP-1): 854.71 and 855.519 and 854.572
Response (Dose Response Curve) ([4]; Dose 1.95313e-8, single replicate run, listed as iCBP-1): 854.478 and 856.32 and 852.68
Response (Dose Response Curve) ([4]; Dose 3.90625e-8, single replicate run, listed as iCBP-1): 853.805 and 853.804 and 852.557
Response (Dose Response Curve) ([4]; Dose 7.8125e-8, single replicate run, listed as iCBP-1): 851.041 and 853.265 and 851.047
Response (Dose Response Curve) ([4]; Dose 1.5625e-7, single replicate run, listed as iCBP-1): 849.783 and 852.179 and 850.016
Response (Dose Response Curve) ([4]; Dose 3.125e-7, single replicate run, listed as iCBP-1): 847.514 and 851.349 and 849.816
Response (Dose Response Curve) ([4]; Dose 6.25e-7, single replicate run, listed as iCBP-1): 850.56 and 852.488 and 847.121
Response (Dose Response Curve) ([4]; Dose 1.25e-6, single replicate run, listed as iCBP-1): 851.062 and 851.994 and 849.472
Response (Dose Response Curve) ([4]; Dose 2.5e-6, single replicate run, listed as iCBP-1): 852.183 and 853.073 and 851.642
Kd ([4]; MST, single replicate run, target clGFP-CBPBRD, TargetConcentration 5e-8, MST-Power Medium, unit inferred, listed as iCBP-1, read-out: Kd (Fit Results, Fit Model: Kd)): 11.6 nM and 7.49 nM and 11.5 nM
Bound (Fit Results) ([4]; fitted MST response of bound state, single replicate run, target clGFP-CBPBRD 5e-8, listed as iCBP-1): 850.224 and 852.177 and 849.456
Unbound (Fit Results) ([4]; fitted MST response of unbound state, single replicate run, target clGFP-CBPBRD 5e-8, listed as iCBP-1): 855.236 and 856.83 and 855.351
Kd ([4]; three independent MST experiments, average ± SD, read-out: Kd (nM) CBP): 12.1 ± 4.9 nM
Structure (SMILES): COC1CCC(n2c(C3CCCC(=O)N3c3cccc(C(F)F)c3)nc3cc(-c4c(C)noc4C)ccc32)CC1 (centres unmarked) [Compound 3]
Ratio CBP/BRD4 of ∆Tm (CBP bromodomain [3]): 2.8
